Experimental data: patent US20110237629A1, “AMINO ACID ESTER PRODRUGS AND THE USE THEREOF” (Bayer Schering Pharma Aktiengesellschaft, priority 2008, published 2011)
Where a name gives a salt, the structure may show the parent alone.

Key:
Assay type in all cases: physicochemical
[1] = Stability in buffer at various pH values
Protocol: 0.3 mg of the test substance is weighed into a 2 ml HPLC vial and 0.5 ml of acetonitrile or acetonitrile/DMSO (9:1) is added. The substance is dissolved by putting the sample vessel in an ultrasonic bath for about 10 seconds. Then 0.5 ml of the respective buffer solution is added, and the sample is again treated in the ultrasonic bath.
(Buffer) solutions employed:
pH 4: 1 liter of Millipore water is adjusted to pH 4.0 with 1 N hydrochloric acid;
pH 5: 0.096 mol of citric acid and 0.2 mol of sodium hydroxide ad 1 liter of water;
pH 7.4: 90.0 g of sodium chloride, 13.61 g of potassium dihydrogen phosphate and 83.35 g of 1 N sodium hydroxide solution are made up to 1 liter with water; this solution is then further diluted 1:10 with Millipore water.
pH 8: 0.013 mol of borax and 0.021 mol of hydrochloric acid ad 1 liter of water.
5 μl portions of the test solution are analyzed by HPLC for their content of unchanged test substance, and of basic mother substance of the formula (A) formed, every hour over a period of 24 hours at 37° C. The percentage areas of the appropriate peaks are used for quantification.
HPLC method for example 1:
(§1) Agilent 1100 with DAD (G1315B), binary pump (G1312A), autosampler (G1329A), column oven (G1316A), thermostat (G1330B); column: Kromasil 100 C18, 125 mm×4 mm, 5 μm; column temperature: 30° C.; eluent A: water+5 ml perchloric acid/liter, eluent B: acetonitrile; gradient: 0 min 90% A→2.0 min 70% A→18.0 min 70% A 20.0 min 10% A→21.0 min 10% A→23.0 min 90% A→26.0 min 90% A; flow rate: 2.0 ml/min;
HPLC method for example 3:
as §1, with “(G1314A),” for “(G1315B),”, “(G1330A);” for “(G1330B);”, “64%” for “70%”, “64% A→20.0” for “70% A 20.0”, “ml/min UV detection: 294 nm.” for “ml/min;”
HPLC method for example 11:
as §1, with “ml of” for “ml”, “64%” for “70%”, “64% A→20.0” for “70% A 20.0”, “ml/min; UV detection: 294 nm.” for “ml/min;”
HPLC method for example 14:
Agilent 1100 with DAD (G1315B), binary pump (G1312A), autosampler (G1329A), column oven (G1316A), thermostat (G1330B); column: Kromasil 100 C18, 250 mm×4 mm, 5 μm; column temperature: 30° C.; eluent A: water+5 ml of perchloric acid/liter, eluent B: acetonitrile; gradient: 0 min 90% A→7.0 min 52% A→18.0 min 52% A→20.0 min 10% A→21.0 min 10% A→23.0 min 90% A -4 26.0 min 90% A; flow rate: 2.0 ml/min; UV detection: 288 nm.
HPLC method for example 18:
Agilent 1100 with DAD (G1315A), binary pump (G1312A), autosampler (G1329A), column oven (G1316A), thermostat (G1330A); column: Kromasil 100 C18, 125 mm×4 mm, 5 μm; column temperature: 30° C.; eluent A: water+5 ml of perchloric acid/liter, eluent B: acetonitrile; gradient: 0 min 90% A→6.0 min 61% A→18.0 min 61% A→20.0 min 10% A→21.0 min 10% A→23.0 min 90% A→26.0 min 90% A; flow rate: 2.0 ml/min; UV detection: 294 nm.
The ratios of the peak areas (F) at the respective time points in relation to the peak areas at the starting time are shown in Table 3 for representative exemplary embodiments: […]

[2] = Determination of the solubility (suspension shaken 24 h at room temperature, HPLC of supernatant); conditions: thermodynamic from solid
Protocol: The test substance is suspended in water or dilute hydrochloric acid (pH 4) or in 5% strength aqueous dextrose solution. This suspension is shaken at room temperature for 24 h. After ultracentrifugation at 224 000 g for 30 min, the supernatant is diluted with DMSO and analysed by HPLC. A two-point calibration plot of the test compound in DMSO is used for quantification.
Agilent 1100 with DAD (G1315A), quat. Pump (G1311A), autosampler CTC HTS PAL, degasser (G1322A) and column thermostat (G1316A); column: Phenomenex Gemini C18, 5 μm, 50 mm×2 mm; temperature: 40° C.; eluent A: water/phosphoric acid pH 2, eluent B: acetonitrile; flow rate: 0.7 ml/min; gradient: 0-0.5 min 85% A, 15% B; ramp 0.5-3 min 10% A, 90% B; 3-3.5 min 10% A, 90% B; ramp 3.5-4 min 85% A, 15% B; 4-5 min 85% A, 15% B.
Agilent 1100 with DAD (G1315A), quat. pump (G1311A), autosampler CTC HTS PAL, degasser (G1322A) and column thermostat (G1316A); column: VDSoptilab Kromasil 100 C18, 3.5 μm, 60 mm×2.1 mm; temperature: 30° C.; eluent A: water+5 ml of perchloric acid/liter, eluent B: acetonitrile; flow rate: 0.75 ml/min; gradient: 0-0.5 min 98% A, 2% B; ramp 0.5-4.5 min 10% A, 90% B; 4.5-6 min 10% A, 90% B; ramp 6.5-6.7 min 98% A, 2% B; 6.7-7.5 min 98% A, 2% B.
The solubilities of representative exemplary embodiments in dilute hydrochloric acid (pH 4) are shown in Table1: […]

[3] = as above; conditions: 0.1 M hydrochloric acid, simulated gastric fluid, thermodynamic from solid
[4] = saline or isotonic, 5% strength aqueous dextrose solution

Row | Structure (SMILES) | % test substance after 4 h [F(t = 4 h) × 100/F(t = 0 h)] ([1]; pH 4, 37° C.) | % test substance after 24 h [F(t = 24 h) × 100/F(t = 0 h)] ([1]; pH 4, 37° C.) | % test substance after 4 h [F(t = 4 h) × 100/F(t = 0 h)] ([1]; pH 7.4, 37° C.) | % test substance after 24 h [F(t = 24 h) × 100/F(t = 0 h)] ([1]; pH 7.4, 37° C.) | solubility at 24 h [2, 4] | also measured
1 | N#Cc1c(N)nc(SCc2coc(-c3ccc(Cl)cc3)n2)c(C#N)c1-c1ccc(OC[C@@H](COC(=O)CCCN)OC(=O)CCCN)cc1 [Example 14, (2S)-3-{4-[2-Amino-6-({[2-(4-chlorophenyl)-1,3-oxazol-4-yl]methyl}sulphanyl)-3,5-dicyanopyridin-4-yl]phenoxy}propane-1,2-diyl bis(4-aminobutanoate)dihydrochloride] | 97% | 92% | 93% | 74% | 540 µg/mL | –
2 | CC(C)[C@H](N)C(=O)OC[C@H](COc1ccc(-c2c(C#N)c(N)nc(SCc3coc(-c4ccc(Cl)cc4)n3)c2C#N)cc1)OC(=O)[C@@H](N)C(C)C [Example 16, (2S)-3-{4-[2-Amino-6-({[2-(4-chlorophenyl)-1,3-oxazol-4-yl]methyl}sulphanyl)-3,5-dicyanopyridin-4-yl]phenoxy}propane-1,2-diyl(2S,2′S)-bis(2-amino-3-methylbutanoate)bis(trifluoroacetic acid) salt] | – | – | – | – | 250 µg/mL | –
3 | N#Cc1c(N)nc(SCc2coc(-c3ccc(Cl)cc3)n2)c(C#N)c1-c1ccc(OC[C@H](O)CO)cc1 [Example 8A, 2-Amino-6-({[2-(4-chlorophenyl)-1,3-oxazol-4-yl]methyl}sulfanyl)-4-(4-{[(2R)-2,3-dihydroxypropyl]oxy}phenyl)pyridine-3,5-dicarbonitrile, reference compound] | – | – | – | – | < 1.2 µg/mL | solubility at 24 h [3]: < 0.1 µg/mL
4 | C[C@@H](O)[C@H](N)C(=O)OC[C@H](COc1ccc(-c2c(C#N)c(N)nc(SCc3coc(-c4ccc(Cl)cc4)n3)c2C#N)cc1)OC(=O)[C@@H](N)[C@@H](C)O [Example 18, (2S)-3-{4-[2-Amino-6-({[2-(4-chlorophenyl)-1,3-oxazol-4-yl]methyl}sulfanyl)-3,5-dicyanopyridin-4-yl]phenoxy}propane-1,2-diyl(2S,3R,2′S,3′R)-bis(2-amino-3-hydroxybutanoate)bis(trifluoroacetic acid) salt] | 100% | 95% | 95% | 72% | 240 µg/mL | –
5 | N#Cc1c(N)nc(SCc2coc(-c3ccc(Cl)cc3)n2)c(C#N)c1-c1ccc(OC[C@@H](COC(=O)CCCCCN)OC(=O)CCCCCN)cc1 [Example 15, (2S)-3-{4-[2-Amino-6-({[2-(4-chlorophenyl)-1,3-oxazol-4-yl]methyl}sulphanyl)-3,5-dicyanopyridin-4-yl]phenoxy}propane-1,2-diyl bis(6-aminohexanoate) dihydrochloride] | – | – | – | – | 830 µg/mL | –
6 | CC(C)[C@H](N)C(=O)OC[C@@H](COc1ccc(-c2c(C#N)c(N)nc(SCc3coc(-c4ccc(Cl)cc4)n3)c2C#N)cc1)OC(=O)[C@@H](N)C(C)C [Example 10, (2R)-3-{4-[2-Amino-6-({[2-(4-chlorophenyl)-1,3-oxazol-4-yl]methyl}sulphanyl)-3,5-dicyanopyridin-4-yl]phenoxy}propane-1,2-diyl(2S,2′S)-bis(2-amino-3-methylbutanoate)-dihydro-chloride] | – | – | – | – | > 500 µg/mL | –
7 | C[C@H](N)C(=O)OC[C@@H](COc1ccc(-c2c(C#N)c(N)nc(SCc3coc(-c4ccc(Cl)cc4)n3)c2C#N)cc1)OC(=O)[C@H](C)N [Example 11, (2R)-3-{4-[2-Amino-6-({[2-(4-chlorophenyl)-1,3-oxazol-4-yl]methyl}sulphanyl)-3,5-dicyanopyridin-4-yl]phenoxy}propane-1,2-diyl(2S,2′S)-bis(2-aminopropanoate)dihydrochloride] | 96% | 96% | 84% | 44% | – | –
8 | CC(C)C[C@H](N)C(=O)OC[C@H](COc1ccc(-c2c(C#N)c(N)nc(SCc3coc(-c4ccc(Cl)cc4)n3)c2C#N)cc1)OC(=O)[C@@H](N)CC(C)C [Example 17, (2S)-3-{4-[2-Amino-6-({[2-(4-chlorophenyl)-1,3-oxazol-4-yl]methyl}sulphanyl)-3,5-dicyanopyridin-4-yl]phenoxy}propane-1,2-diyl(2S,2′S)-bis(2-amino-4-methylpentanoate)bis(trifluoroacetic acid) salt] | – | – | – | – | 330 µg/mL | –
9 | N#Cc1c(N)nc(SCc2coc(-c3ccc(Cl)cc3)n2)c(C#N)c1-c1ccc(OC[C@@H](COC(=O)[C@@H](N)CCCCN)OC(=O)[C@@H](N)CCCCN)cc1 [Example 13, (2S)-3-{4-[2-Amino-6-({[2-(4-chlorophenyl)-1,3-oxazol-4-yl]methyl}sulphanyl)-3,5-dicyanopyridin-4-yl]phenoxy)propane-1,2-diyl(2S,2′S)-bis(2,6-diaminohexanoate)dihydrochloride] | – | – | – | – | 710 µg/mL | –
10 | N#Cc1c(N)nc(SCc2coc(-c3ccc(Cl)cc3)n2)c(C#N)c1-c1ccc(OC[C@@H](COC(=O)CN)OC(=O)CN)cc1 [Example 3, (2S)-3-{4-[2-Amino-6-({[2-(4-chlorophenyl)-1,3-oxazol-4-yl]methyl}sulphanyl)-3,5-dicyanopyridin-4-yl]phenoxy}propane-1,2-diyl bis(aminoacetate) dihydrochloride] | 99% | 99% | 93% | 67% | – | –
11 | C[C@@H](N)C(=O)OC[C@H](COc1ccc(-c2c(C#N)c(N)nc(SCc3coc(-c4ccc(Cl)cc4)n3)c2C#N)cc1)OC(=O)[C@@H](C)N [Example 9, (2S)-3-{4-[2-Amino-6-({[2-(4-chlorophenyl)-1,3-oxazol-4-yl]methyl}sulfanyl)-3,5-dicyanopyridin-4-yl]phenoxy}propane-1,2-diyl(2R,2′R)-bis(2-aminopropanoate)dihydrochloride] | – | – | – | – | – | solubility at 24 h ([2]; aqueous buffer, dilute hydrochloric acid (pH 4)): 535 µg/mL
